# From publication PMC5460925, “Degradation Paradigm of the Gut Hormone, Pancreatic Polypeptide, by Hepatic and Renal Peptidases” (Endocrinology, 2017)
# Where no end group is shown, it is not given here.
# Legend:
# [1] = system: food intake in C57/BL6 mice; experiment: Acute feeding studies (food intake) in overnight-fasted mice; type: in vivo, mouse; settings: for inhibition of food intake over 24 hours vs saline: 0 to 24 hours
# Description: All animal procedures were approved by the British Home Office, under the United Kingdom Animal (Scientific Procedures) Act 1986 (project license, 70/6402). Adult male C57/BL6 mice (Harlan, Wyton, UK) weighing 20 to 25 g were maintained in individual cages under controlled temperature (21°C to 23°C) and light (12-hour light/dark cycle, with lights on at 7:00 AM). The mice had ad libitum access to water and normal chow RM1 (Special Diet Services, Devon, UK), unless stated otherwise. For acclimatization, the mice were regularly handled and given 2 sham subcutaneous (SC) and/or intraperitoneal (IP) injections of saline. Before each feeding study, the mice were fasted overnight, and the injections were performed during the early light phase (8:00 to 10:00 AM). The mice were stratified by body weight. To investigate the anorectic effects of DPPIV-resistant analogs, the mice were stratified into treatment groups and administered a SC injection (maximum volume, 100 µL) of vehicle, PP, PP3-36, PP2-36, or PP-Ala0 (n = […]). Food intake was measured at 1, 2, 4, and 8 hours after injection to compare the peptides with short half-lives (PP and its endogenous degradation product, PP3-36) and, in a separate experiment, at 24 hours after injection for peptides with modifications (PP-Ala0 and PP2-36, using PP as the comparator). A PP analog with global modifications for enzyme resistance (PP-x) was also investigated and administered as a SC injection (maximum volume, 100 µL) at a high and low dose (n = 9). Food intake was measured at 1, 2, 4, and 8 hours after injection. […] This dose of phosphoramidon was sufficient to inhibit NEP activity ([30]). Food intake was measured at 1, 2, 4, 8, 24, and 48 hours after injection.
# in vivo = experiment: in vivo; design: species or system mouse; settings: sc
# Description: The mice were divided into four treatment groups according to body weight. A protocol similar to that used for the phosphoramidon feeding study was used, with an IP injection, followed by a SC injection 15 minutes later (maximum volume, 50 µL for each injection) of phosphoramidon (0, 7, 20, and 60 mg/kg IP), followed by PP (150 nmol/kg SC in saline; n = 4 to 6; […]). […] Additional mice (n = 2) underwent overnight fasting and were culled at 0 minutes after injection of the control substances (saline SC and vehicle IP) for measurement of the baseline levels of circulating PP. The blood was immediately removed via cardiac puncture and centrifuged at 6000 rpm (Sigma 3K18; 12348 rotor; Sigma-Aldrich) for 10 minutes. The plasma was stored at −20°C until analysis. The plasma samples were assayed using an established in-house PP RIA ([8]). The anti-PP antibody was elevated in rabbit against human PP and recognized PP (and other truncated forms) but not in other PP-fold peptides or gastrointestinal peptides. ^125I-PP was prepared using the iodogen method and purified using HPLC. The assay was performed in duplicate in a total volume of 700 µL of 0.06 M phosphate buffer (pH 7.35) containing 0.3% bovine serum albumin. The samples were incubated for 3 days at 4°C before separation of free and antibody-bound ^125I-PP using dextran-coated charcoal. The sensitivity was ≤5 fmol/tube. The intra-assay coefficient of variation was 6%.
# mouse Y4 receptor = target: T1, mouse Y4 receptor (Mus musculus, UniProt Q61041); experiment: Y4 receptor binding assay (125I-PP competition)
# T1 construct: expressed in transfected cells; host or cells: HEK293
# Description: Transfected HEK293 cells overexpressing the mouse Y4 receptor were prepared and binding assays performed as previously described ([29]). Isolated cell membranes (protein concentration, 1 to 2 µg/mL) were incubated for 90 minutes in siliconized polypropylene tubes together with ^125I-PP [1 kBq (100 pM)] and a dose response of unlabeled competing peptides at 4°C in binding buffer [20 mM HEPES (pH 7.4), 1 mM MgCl2, 5 mM CaCl2, 0.1% bovine serum albumin, and protease inhibitors (0.2 mM phenylmethylsulfonyl fluoride, 0.1 mM Diprotin A, and 10 µM phosphoramidon ( all from Sigma-Aldrich)] in a final assay volume of 0.5 mL. PP was iodinated as previously described ([8]) using ^125I from GE Healthcare Life Sciences (Amersham, UK). Pelleted membranes were washed with 5 mL ice-cold assay buffer, and the membranes were centrifuged at 15,874g for 3 minutes at 4°C, as described, to separate bound and free label. Bound radioactivity was measured using a γ-counter (NE 1600; NE Technology Ltd, Reading, UK). Specific binding was calculated as the difference between the amount of ^125I-PP bound in the absence (total binding) and presence of 5 μM unlabeled competing peptide (nonsaturable binding). All curves were performed with points in triplicate. Half maximal inhibitory concentration values were calculated using Prism, version 5.01 (GraphPad Software Inc., San Diego, CA) using a three-parameter logistic equation for the nonlinear regression fit: Y = bottom + (top − bottom)/1 + 10^(LogEC50 − X), where EC50 is the half maximal effective concentration.
# [2] = 150 nmol/kg SC, overnight-fasted C57/BL6 mice, n = 7
# T1 sequence (Q61041 whole entry): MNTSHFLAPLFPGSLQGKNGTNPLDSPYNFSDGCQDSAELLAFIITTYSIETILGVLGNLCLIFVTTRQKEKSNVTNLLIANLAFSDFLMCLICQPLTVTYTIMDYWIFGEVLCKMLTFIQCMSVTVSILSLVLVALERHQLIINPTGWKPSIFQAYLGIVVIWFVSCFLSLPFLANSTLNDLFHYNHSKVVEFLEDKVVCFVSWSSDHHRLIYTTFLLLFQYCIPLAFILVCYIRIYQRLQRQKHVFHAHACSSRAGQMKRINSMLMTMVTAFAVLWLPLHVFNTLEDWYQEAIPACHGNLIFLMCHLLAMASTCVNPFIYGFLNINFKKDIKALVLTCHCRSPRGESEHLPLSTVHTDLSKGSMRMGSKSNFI
compound,measurement,setting,value
GAPLEPTYPGDNATPEQLARYAAALRRYINKLTRPRY-NH2 (C-terminus assumed) [PP-x],"cumulative food intake at 8 hours (0- to 8-hour interval), low dose","[1]; 25 nmol/kg SC, overnight-fasted C57BL/6 mice, n = 9, mean ± SEM",1.98 ± 0.14 g
same,"food intake at 8 hours, high dose","[1]; 150 nmol/kg SC, overnight-fasted C57BL/6 mice, n = 9, mean ± SEM",1.04 ± 0.09 g
same,plasma level at 120 minutes relative to PP,in vivo; mouse,almost threefold
same,level at time molar at 0.5 h,"in vivo; mouse, 100 nmol/kg, plasma peptide level at 30 minutes after injection",26.9 nM
same,level at time molar at 2 h,"in vivo; mouse, 100 nmol/kg, plasma peptide level at 120 minutes after injection",5.81 ± 0.215 nM
CC[C@H](C)[C@H](NC(=O)[C@H](Cc1ccc(O)cc1)NC(=O)[C@H](CCCNC(=N)N)NC(=O)[C@H](CCCNC(=N)N)NC(=O)[C@H](CC(C)C)NC(=O)[C@H](CC(=O)O)NC(=O)[C@H](C)NC(=O)[C@H](C)NC(=O)[C@H](Cc1ccc(O)cc1)NC(=O)[C@H](CCC(N)=O)NC(=O)[C@H](C)NC(=O)[C@H](CCSC)NC(=O)[C@H](CCC(N)=O)NC(=O)[C@H](CCC(=O)O)NC(=O)[C@@H]1CCCN1C(=O)[C@@H](NC(=O)[C@H](C)NC(=O)[C@H](CC(N)=O)NC(=O)[C@H](CC(=O)O)NC(=O)CNC(=O)[C@@H]1CCCN1C(=O)[C@H](Cc1ccc(O)cc1)NC(=O)[C@@H](NC(=O)[C@@H]1CCCN1C(=O)[C@H](CCC(=O)O)NC(=O)[C@H](CC(C)C)NC(=O)[C@@H]1CCCN1C(=O)[C@H](C)NC(=O)[C@H](C)N)C(C)C)[C@@H](C)O)C(=O)N[C@@H](CC(N)=O)C(=O)N[C@@H](CCSC)C(=O)N[C@@H](CC(C)C)C(=O)N[C@H](C(=O)N[C@@H](CCCNC(=N)N)C(=O)N1CCC[C@H]1C(=O)N[C@@H](CCCNC(=N)N)C(=O)N[C@@H](Cc1ccc(O)cc1)C(N)=O)[C@@H](C)O [PP-Ala0],IC50,"mouse Y4 receptor; membranes of HEK293 cells overexpressing mouse Y4 receptor, competition with 125I-PP (100 pM), 90 min, 4°C, mean ± SEM of three to five separate experiments, read-out: IC50 (half maximal inhibitory concentration), Y4 receptor binding affinity",0.35 ± 0.05 nM
same,inhibition of food intake over 24 hours vs saline,[1]; [2],statistically significant inhibition of food intake
same,level at time molar at 0.75 h,"in vivo; male, C57BL/6, mouse, 150 nmol/kg, plasma level of PP-Ala0 at 45 minutes, alone",4.92 ± 0.48 nM
same,level at time molar at 1.5 h,"in vivo; male, C57BL/6, mouse, 150 nmol/kg, plasma level of PP-Ala0 at 90 minutes, alone",1.81 ± 0.319 nM
same,decrease of plasma level (peptide cleared) between 45 and 90 minutes after injection,in vivo; mouse,60%
"PP3-36: DPPIV degradation product of PP (LEPVYPGDNATPEQMAQYAADLRRYINMLTRPRY-NH2; ends and bridges not checked; UniProt P01298 32-65, looked up, fragment)",affinity to the Y4 receptor compared with PP,"mouse Y4 receptor; DPPIV degradation product compared with PP, statement in discussion",no substantial reduction in affinity
same,cumulative food intake 0 to 8 hours,"[1]; 150 nmol/kg SC, overnight-fasted C57/BL6 mice, n = 7, mean ± SEM",1.71 ± 0.29 g
N[C@@H](CC(=O)N1CCn2c(nnc2C(F)(F)F)C1)Cc1cc(F)c(F)cc1F [sitagliptin],"effect on food intake, inhibitor alone","[1]; sitagliptin 6 mg/kg IP then saline SC, any interval up to 8 hours",did not cause a substantial reduction of food intake
CC[C@H](C)[C@H](NC(=O)[C@H](Cc1ccc(O)cc1)NC(=O)[C@H](CCCNC(=N)N)NC(=O)[C@H](CCCNC(=N)N)NC(=O)[C@H](CC(C)C)NC(=O)[C@H](CC(=O)O)NC(=O)[C@H](C)NC(=O)[C@H](C)NC(=O)[C@H](Cc1ccc(O)cc1)NC(=O)[C@H](CCC(N)=O)NC(=O)[C@H](C)NC(=O)[C@H](CCSC)NC(=O)[C@H](CCC(N)=O)NC(=O)[C@H](CCC(=O)O)NC(=O)[C@@H]1CCCN1C(=O)[C@@H](NC(=O)[C@H](C)NC(=O)[C@H](CC(N)=O)NC(=O)[C@H](CC(=O)O)NC(=O)CNC(=O)[C@@H]1CCCN1C(=O)[C@H](Cc1ccc(O)cc1)NC(=O)[C@@H](NC(=O)[C@@H]1CCCN1C(=O)[C@H](CCC(=O)O)NC(=O)[C@H](CC(C)C)NC(=O)[C@@H]1CCCN1)C(C)C)[C@@H](C)O)C(=O)N[C@@H](CC(N)=O)C(=O)N[C@@H](CCSC)C(=O)N[C@@H](CC(C)C)C(=O)N[C@H](C(=O)N[C@@H](CCCNC(=N)N)C(=O)N1CCC[C@H]1C(=O)N[C@@H](CCCNC(=N)N)C(=O)N[C@@H](Cc1ccc(O)cc1)C(N)=O)[C@@H](C)O [PP2-36],inhibition of food intake over 24 hours vs saline,[1]; [2],statistically significant inhibition of food intake
CC(C)C[C@H](NP(=O)(O)O[C@@H]1O[C@@H](C)[C@H](O)[C@@H](O)[C@H]1O)C(=O)N[C@@H](Cc1c[nH]c2ccccc12)C(=O)O [phosphoramidon],"effect on food intake, inhibitor alone","[1]; phosphoramidon 5 mg/kg IP then saline SC, any interval up to 48 hours",did not cause a substantial reduction of food intake
